Source: publication doi:10.1101/504811v1 (biorxiv, 2018)

Target: T1, MPH-wt (Pseudomonas sp. WBC-3, UniProt Q841S6)
T1 sequence (Q841S6 36-331): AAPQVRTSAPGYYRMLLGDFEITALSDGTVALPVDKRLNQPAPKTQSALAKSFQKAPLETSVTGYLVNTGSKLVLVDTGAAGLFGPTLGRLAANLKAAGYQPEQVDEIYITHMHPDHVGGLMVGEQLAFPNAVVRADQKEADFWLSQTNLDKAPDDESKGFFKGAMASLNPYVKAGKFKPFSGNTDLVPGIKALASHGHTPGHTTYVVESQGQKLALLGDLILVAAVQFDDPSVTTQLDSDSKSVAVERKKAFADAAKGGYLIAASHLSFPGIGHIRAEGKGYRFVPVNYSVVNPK
Experiment: hydrolysis kinetics, purified enzyme
Assay type: biochemical

## O=C1CCc2ccccc2O1 [dihydrocoumarin]
  KM: only moderate DHCH activity
